Reference: US5989846A, “Assays to identify inducers of plant defense resistance” (Rutgers, The State University of New Jersey, priority 1995, dated 1999)
pIC50: −log10 of the molar value.

How the values were obtained:
[1] = test system: salicylic acid binding protein; test: Effect of antioxidants on salicylic acid binding activity; parameters: species or system tobacco; details: 20 mM citrate, 5 mM MgCl, 10% glycerol pH 6.5, FIG. 5
Description: This was measured in buffers containing 20 mM citrate, 5 mM MgCl and 10% glycerol pH 6.5 in addition to the indicated concentrations of antioxidant.
A key element during the characterization and the purification process is a simple, inexpensive, sensitive and reliable method for determining the salicylic acid binding activity. For this purpose, spin-column exclusion chromatography was used to separate the bound [^14 C] salicylic acid (excluded) from the bulk free salicylic acid (included). Specifically, a 1.5 ml Eppendorf tube was punctured at the tip with a 20-gauge needle and a small amount of glass wool was added to cover the small hole. The tube was then filled with Bio-Gel P-6DG desalting gel (exclusion limit 6 KDa; purchased from Bio-Rad, Melville, N.Y.) which have been swollen in water. An alternative gel is Sephadex G-25 fine (from Pharmacia, Piscataway, N.J.). Excess liquid in the gel was removed and centrifuged for 5 minutes at full speed in a Dynamic centrifuge (Becton Dickinson). The process was then repeated several times until the gel filled the tube. After incubation of an aliquot of the extract or column fractions for 2 hr at 4° C. with 5 μM-20 μM [^14 C salicylic acid] (specifically radioactivity 55 Ci/mol; purchased from New England Nuclear), 150 μl of proteins binding sample was loaded onto the tube column, which was then rapidly centrifuged for 2 minutes at full speed and the solution of proteins and bound [^14 C-salicylic acid] that was excluded from the gel was collected into another tube that had been placed under the tube column during the centrifugation. One hundred microliters of this solution was then used to determine the amount of bound salicylic acid. […] For example, to determine the inhibitory effect of various salicylic acid analogues on salicylic acid binding activity, these individual analogues were included in the binding mixture containing both the protein and [^14 C] salicylic acid during the 2 hr incubation, and resulting binding activity was determined in comparison to the activity in the absence of these analogues. […]

catalase = test: In vivo catalase activity in tobacco suspension cells (oxygen electrode); assay type: cell-based
Description: This was determined by adding increasing concentrations of SA or INA to tobacco suspension cells (derived from cultivar Xanthi nc), as described below. The tobacco suspension cell culture was grown in the dark in MS medium at approximately 22° C. with agitation (160 rpm). Cells were maintained by diluting 10-fold every 5 days. For experimentation, 5 ml of suspension cells obtained 3 days after dilution was transferred to a 25 ml Erlenmeyer flask and agitated (100 rpm) at room temperature in the absence or presence of SA or INA which had been adjusted to pH 5.8. After 1 hr, 1 ml of the treated cell suspension was transferred to 7 ml of fresh MS medium containing SA or INA in a 10 ml beaker (density was approximately 6 mg cells per ml). Cells were maintained in suspension with a magnetic stir bar. In vivo catalase activity was determined by measuring, with an oxygen electrode, the rate of H2 O2 -dependent O2 production immediately after addition of H2 O2 to 10 mM final concentration.

ascorbate peroxidase = test: Ascorbate peroxidase activity in tobacco leaf extracts; assay type: biochemical, Nicotiana tabacum cv. Xanthi nc; details: for % Inhibition of ascorbate peroxidase: 200 μM compound, corrected for quenching of auto oxidation
Description: […] Two grams of leaves from 6-8 week old tobacco plants (Nicotiana tabacum cv. Xanthi nc) grown at 22° C. in a 14 hr light cycle were homogenized under liquid nitrogen using a pestle and mortar.
To obtain ascorbate peroxidase-containing extracts, the soluble proteins were extracted by grinding the powder in 10 ml of 100 mM potassium phosphate, pH 7, containing […] ascorbate and 1% (weight/volume) polyvinylpyrrolidone, with a small amount of quartz sand. The homogenate was centrifuged at 14,000 g for 5 min. […] The pellet resulting from centrifugation (14,000 g, 15 min.) was resuspended in extraction buffer (100 mM potassium phosphate, pH7, containing 0.25 mM ascorbate and 1% (weight/volume) polyvinylpyrrolidone) and desalted on a PD-10 column (Pharmacia) equilibrated with 50 mM potassium phosphate, pH 7, containing 100 μM ascorbate. The extract was used immediately. […] The amount of protein per assay was 30-50 μg. Oxidation of ascorbate was followed by the decrease in the absorbance at 290 nm.
The values illustrated in FIG. 17 are the mean values for three replicated assays.

SABP/catalase = test: Competition with 14C-labeled SA for SABP/catalase in crude leaf extracts; assay type: binding, tobacco; details: in vitro
TMV = assay type: in vivo, tobacco mosaic virus; details: for Enhanced resistance to TMV infection (reduction in lesion size): N.t. cv. Xanthi nc plants, compared to water-treated control plants
Description: The SA/SAG valves are given in micrograms per gram fresh weight of leaf tissue and represent averages of values from 3-6 treated plants at 6 days past injection. […] For determination of reduction in lesion size, longitudinal halves of 2 leaves on 3-6 plants were injection with chemicals, and six days later the entire leaf was infected with TMV. Twenty lesions were measured on each half of the leaf seven days post infection; the values given represent the average percent reduction in lesion diameter in the treated leaf half compared to the untreated half.

PR1 genes = test: PR-1 protein/gene expression in tobacco leaves (immunoblot); assay type: in vivo; details: for Induction of PR-1 protein synthesis / PR-1 gene induction (in words): N.t. cv. Xanthi nc
Description: The level of PR1 protein in tobacco leaves was analyzed by immunoblot analysis to establish biological activity. Three leaf discs (1 cm in diameter) were homogenized in 200 microliters of buffer containing 50 mM Tris (pH 8.0), 1 mM EDTA, 12 mM beta-mercaptoethanol and 10 mg/ml phenylmethylsulfonyl fluoride. The homogenate was centrifuged at full speed for 10 minutes in an Eppendorf microcentrifuge. The supernatant was fractionated with 15% polyacrylamide gel under denatured conditions. Protein blotting was done with a monoclonal antibody specific to PR1 protein and protein-antibody complexes were detected with an ECL kit from Amersham.
PR gene expression is both induced by SA and associated with the development of SAR. Therefore, it was of interest to test whether SA's mechanism of action for the induction of PR genes was via its inhibition of catalases which leads to enhanced H2 O2 levels. To address this question, H2 O2 abundance was artificially raised in tobacco leaves by treating with H2 O2 or compounds which either inhibit the catalase activity, like SA itself, or promote generation of H2 O2 in vivo. […]

H2 O2 = test: Abundance of H2O2 in treated tobacco leaves; assay type: in vivo; details: FIG. 11
Description: The abundance of H2 O2 increased in SA- or 3AT-treated tobacco leaves by 50-60% over the control levels observed in water-treated leaves. […] Thus, elevated levels of H2 O2, and in turn, enhanced oxidative stress in vivo, were consistent with inhibition of catalase activity by SA observed in vitro.

guaiacol peroxidases = test: Guaiacol peroxidase activity in tobacco leaf extracts; assay type: biochemical, Nicotiana tabacum cv. Xanthi nc
Description: Inhibition of peroxidase by SA and INA was determined by measuring the enzyme activities in extracts prepared from tobacco leaves in the absence or presence of 100 μM or 1000 μM SA or INA. Two grams of leaves from 6-8 week old tobacco plants (Nicotiana tabacum cv. Xanthi nc) grown at 22° C. in a 14 hr light cycle were homogenized under liquid nitrogen using a pestle and mortar.
Total guaiacol peroxidase activity was extracted with 100 mM potassium phosphate, pH 6.2, containing 1% (weight/volume) polyvinylpyrrolidone. In order to also extract the ionically bound cell wall isozymes, the extraction buffer was supplemented with 600 mM KCl. Extraction and centrifugation steps were as described for ascorbate peroxidase. After removal of cell debris and ammonium sulfate precipitation (85%), the extract was desalted against 50 mM potassium phosphate, pH 6, containing 25% glycerol. The extract could be stored at -20° C. without significant loss of peroxidase activity.
(§1) Guaiacol peroxidase activity was determined by the method of Chance and Maehly (Methods Enzymol. 2: 764 (1955)) using guaiacol as the substrate.
(§2) The formation of tetraguaiacol was monitored at 470 nm. The reaction mixture contained 0.25% guaiacol and 100 mM hydrogen peroxide in 20 mM potassium phosphate, pH 6.2. The amount of protein per 1 ml assay was […]. The reaction was measured for five minutes. The assay for horseradish peroxidase was identical, except that only 0.2-0.5 μg protein was used.

horseradish peroxidase = target: T1, horseradish peroxidase (Armoracia rusticana, UniProt P00433); test: Horseradish peroxidase activity; assay type: biochemical
T1 construct: purchased Sigma
T1 sequence (P00433 31-353): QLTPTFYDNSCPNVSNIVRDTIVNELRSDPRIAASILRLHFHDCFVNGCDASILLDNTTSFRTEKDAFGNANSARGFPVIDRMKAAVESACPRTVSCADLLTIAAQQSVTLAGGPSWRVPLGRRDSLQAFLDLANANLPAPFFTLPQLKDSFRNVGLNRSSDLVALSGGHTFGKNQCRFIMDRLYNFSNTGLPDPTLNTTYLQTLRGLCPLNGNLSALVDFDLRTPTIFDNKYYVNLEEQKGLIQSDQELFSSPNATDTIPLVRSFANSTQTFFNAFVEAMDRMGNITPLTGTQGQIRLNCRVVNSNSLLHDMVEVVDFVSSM
Description: Horseradish peroxidase (1 mg; obtained from Sigma) was dissolved in 1.5 ml 200 mM potassium phosphate, pH 6.2, containing 150 mM NaCl. Following a 15 minute incubation at room temperature, the enzyme solution was centrifuged (10,000 g, 10 minutes). After buffer exchange (PD-10, equilibrated with 25 mM potassium phosphate, pH 6.2), the protein concentration was adjusted to 0.5 mg/ml.
as §1, §2

Compound | Effect on salicylic acid binding activity of SABP [1] | Inhibition of catalase activity in vivo (in words) (catalase) | % Inhibition of ascorbate peroxidase (ascorbate peroxidase) | Inhibition of binding of 14C-labeled SA to SABP/catalase in vitro (in words) (SABP/catalase) | Enhanced resistance to TMV infection (reduction in lesion size) (TMV) | Induction of PR-1 protein synthesis / PR-1 gene induction (in words) (PR1 genes) | further results
O[C@H](CS)[C@H](O)CS (racemic) [dithiothreitol] | affected |  |  |  |  |  | 
O=C(O)c1cc(Cl)cc(Cl)c1O [3,5-Dichlorosalicylic acid] |  | very effectively inhibited catalase activity | 59 ± 5% | very effectively inhibited | enhanced resistance to TMV infection | potent inducers of PR-1 protein synthesis | 
Nc1nc[nH]n1 [3AT, 3-amino-1,2,4-triazole] |  |  |  |  |  |  | Increase in abundance of H2O2 over water-treated leaves (H2 O2): 50-60%; Induction of PR1 gene expression (PR1 genes; tobacco leaves): induced the expression of PR-1 genes
O=C(O)c1ccc(Cl)cc1O [4-Chlorosalicylic acid] |  | very effectively inhibited catalase activity | 58 ± 4% | very effectively inhibited | enhanced resistance to TMV infection | potent inducers of PR-1 protein synthesis | 
O=C(O)c1cc(Cl)ccc1O [5-Chlorosalicylic acid] |  | very effectively inhibited catalase activity | 73 ± 5% | very effectively inhibited | enhanced resistance to TMV infection | potent inducers of PR-1 protein synthesis | 
O=C(O)c1cc(Cl)nc(Cl)c1 [INA, 2,6-dichloroisonicotinic acid] |  |  |  |  |  |  | Activity (guaiacol peroxidases; POX, 100 μM compound): 2.8 ± 0.4 μmols of oxidized substrate mi; Inhibition (guaiacol peroxidases; POX, 100 μM compound): 0%; Activity (guaiacol peroxidases; POX, 1,000 μM compound): 2.7 ± 0.4 μmols of oxidized substrate mi; Inhibition (guaiacol peroxidases; POX, 1,000 μM compound): 3%; pIC50 (ascorbate peroxidase; 750 μM ascorbate, 25 to 500 μM compound, FIG. 17, read-out: Concentration necessary for 50% inhibition (I50) of ascorbate peroxidase): 4.02; Activity (ascorbate peroxidase; APX, 100 μM compound): 2.25 ± 0.4 μmols of oxidized substrate mi; Inhibition (ascorbate peroxidase; APX, 100 μM compound): 54%; Activity (ascorbate peroxidase; APX, 1,000 μM compound): 0.24 ± 0.2 μmols of oxidized substrate mi; Inhibition (ascorbate peroxidase; APX, 1,000 μM compound): 95%; Reduction in lesion size (%) (TMV; TMV infection six days after injection, lesions measured seven days post infection, treated vs untreated leaf half): 72%; Activity (horseradish peroxidase; HRP, 100 μM compound): 236 ± 8 μmols of oxidized substrate mi; inhibition at 100 µM (horseradish peroxidase; HRP, 100 μM compound): 1%; Activity (horseradish peroxidase; HRP, 1,000 μM compound): 242 ± 16 μmols of oxidized substrate mi; inhibition at 1000 µM (horseradish peroxidase; HRP, 1,000 μM compound): 0%
O=C1O[C@H]([C@@H](O)CO)C(O)=C1O [ascorbic acid] | little inhibitory effect |  |  |  |  |  | 
OCCS [beta-mercaptoethanol] | affected |  |  |  |  |  | 
